Measurements published in ChEMBL document CHEMBL1201862, “PubChem BioAssay data set” (2004).
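Briefly, cells in 96-well plates were exposed to five compound concentrations for 48 h, and endpoints were estimated by linear interpolation. The concentration for 50% growth inhibition is given as GI50.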 Calls of active or inactive are those of the source. Rule as the data show it: active = GI50 up to about 1.1 µM and inactive = higher.

Assays:
Test in all cases: NCI tumour cell line growth inhibition, 48 h
[1] = tested on: OVCAR-8
[2] = tested on: SK-MEL-2
[3] = tested on: IGROV-1
[4] = tested on: U-251
[5] = tested on: A549
[6] = tested on: SNB-19
[7] = tested on: HOP-18
[8] = tested on: OVCAR-5
[9] = tested on: SK-MEL-28
[10] = tested on: COLO 205
[11] = tested on: NCI-H226
[12] = tested on: OVCAR-3
[13] = tested on: SF-268
[14] = tested on: SN12C
[15] = tested on: CCRF-CEM
[16] = tested on: ACHN
[17] = tested on: K562
[18] = tested on: KM12
[19] = tested on: MOLT-4
[20] = tested on: LXFL 529
[21] = tested on: SF-295
[22] = tested on: Malme-3M
[23] = tested on: HCC 2998
[24] = tested on: NCI-H23
[25] = tested on: DLD-1
[26] = tested on: SF-539
[27] = tested on: SW-620
[28] = tested on: SK-OV-3
[29] = tested on: HOP-92
[30] = tested on: EKVX
[31] = tested on: TK-10
[32] = tested on: M14
[33] = tested on: RPMI-8226
[34] = tested on: 786-0
[35] = tested on: M19-MEL
[36] = tested on: SR
[37] = tested on: HT-29
[38] = tested on: NCI-H460
[39] = tested on: SK-MEL-5
[40] = tested on: HCT-15
[41] = tested on: DMS-114
[42] = tested on: UO-31
[43] = tested on: HL-60
[44] = tested on: NCI-H522
[45] = tested on: RXF 393
[46] = tested on: UACC-257
[47] = tested on: SNB-78
[48] = tested on: UACC-62
[49] = tested on: HOP-62
[50] = tested on: LOX IMVI
[51] = tested on: OVCAR-4
[52] = tested on: HCT-116
[53] = tested on: CAKI-1
[54] = tested on: KM-20L2
[55] = tested on: SNB-75
[56] = tested on: A498
[57] = tested on: XF498
[58] = tested on: DMS-273

With `CCOC(=O)C1=C(C)CC2C(=O)OC(=O)C2C1(C)C` (configuration not stated) the GI50 [1] was > 100 µM (inactive), the GI50 [2] was > 100 µM (inactive) and the GI50 [3] was > 100 µM (inactive). For the same compound, the GI50 [4] was > 100 µM (inactive), the GI50 [5] was > 100 µM (inactive) and the GI50 [6] was > 100 µM (inactive). The GI50 [7] was > 100 µM (inactive), the GI50 [8] was > 100 µM (inactive) and the GI50 [9] was > 100 µM (inactive). For the same compound, the GI50 [10] was > 100 µM (inactive), the GI50 [11] was > 100 µM (inactive) and the GI50 [12] was > 100 µM (inactive). For the same compound, the GI50 [13] was > 100 µM (inactive), the GI50 [14] was > 100 µM (inactive) and the GI50 [15] was > 100 µM (inactive). The GI50 [16] was > 100 µM (inactive), the GI50 [17] was > 100 µM (inactive) and the GI50 [18] was > 100 µM (inactive). The GI50 [19] was > 100 µM (inactive), the GI50 [20] was > 100 µM (inactive) and the GI50 [21] was > 100 µM (inactive). The GI50 [22] was > 100 µM (inactive), the GI50 [23] was > 100 µM (inactive) and the GI50 [24] was > 100 µM (inactive). For the same compound, the GI50 [25] was > 100 µM (inactive), the GI50 [26] was > 100 µM (inactive) and the GI50 [27] was > 100 µM (inactive). The GI50 [28] was > 100 µM (inactive), the GI50 [29] was > 100 µM (inactive) and the GI50 [30] was > 100 µM (inactive). For the same compound, the GI50 [31] was > 100 µM (inactive), the GI50 [32] was > 100 µM (inactive) and the GI50 [33] was > 100 µM (inactive). For the same compound, the GI50 [34] was > 100 µM (inactive), the GI50 [35] was > 100 µM (inactive) and the GI50 [36] was > 100 µM (inactive). The GI50 [37] was > 100 µM (inactive), the GI50 [38] was > 100 µM (inactive) and the GI50 [39] was > 100 µM (inactive). The GI50 [40] was over 100 µM, the GI50 [41] was > 100 µM (inactive) and the GI50 [42] was > 100 µM (inactive). The GI50 [43] was > 100 µM (inactive), the GI50 [44] was > 100 µM (inactive) and the GI50 [45] was > 100 µM (inactive). The GI50 [46] was > 100 µM (inactive).
With `COc1ccc2nc3ccccc3c(NCCCCCCN(C)CCCl)c2c1` the GI50 [1] was 0.296 µM (active), the GI50 [2] was 0.293 µM (active) and the GI50 [3] was 0.163 µM (active). For the same compound, the GI50 [4] was 0.286 µM (active), the GI50 [47] was 330 nM (active) and the GI50 [5] was 0.297 µM (active). The GI50 [48] was 0.307 µM (active), the GI50 [6] was 1.17 µM (inactive) and the GI50 [49] was 1.05 µM (active). The GI50 [8] was 1.11 µM (active), the GI50 [9] was 0.986 µM (active) and the GI50 [50] was 0.162 µM (active). For the same compound, the GI50 [51] was 1.09 µM (active), the GI50 [10] was 0.265 µM (active) and the GI50 [11] was 0.104 µM (active). The GI50 [12] was 1.19 µM (inactive), the GI50 [13] was 0.133 µM (active) and the GI50 [14] was 0.0689 µM (active). The GI50 [15] was 0.0368 µM (active), the GI50 [16] was 0.239 µM (active) and the GI50 [52] was 0.0887 µM (active). The GI50 [17] was 0.0582 µM (active), the GI50 [18] was 0.27 µM (active) and the GI50 [19] was < 0.01 µM (active). For the same compound, the GI50 [20] was 0.262 µM (active), the GI50 [21] was 1 µM (active) and the GI50 [22] was 0.82 µM (active). The GI50 [53] was 314 nM (active), the GI50 [23] was 0.705 µM (active) and the GI50 [24] was 0.175 µM (active). For the same compound, the GI50 [25] was 0.164 µM (active), the GI50 [26] was 0.474 µM (active) and the GI50 [27] was 0.0583 µM (active). For the same compound, the GI50 [28] was 0.664 µM (active), the GI50 [54] was 0.172 µM (active) and the GI50 [29] was 0.158 µM (active). For the same compound, the GI50 [30] was 1.39 µM (inactive), the GI50 [31] was 1.32 µM (inactive) and the GI50 [55] was 0.703 µM (active). The GI50 [32] was 0.834 µM (active), the GI50 [33] was 0.0728 µM (active) and the GI50 [34] was 0.177 µM (active). For the same compound, the GI50 [35] was 0.308 µM (active), the GI50 [37] was 0.122 µM (active) and the GI50 [56] was 1.16 µM (inactive). For the same compound, the GI50 [38] was 0.0569 µM (active), the GI50 [57] was 200 nM (active) and the GI50 [39] was 0.918 µM (active). For the same compound, the GI50 [40] was 0.221 µM, the GI50 [58] was 0.0488 µM (active) and the GI50 [41] was 0.166 µM (active). The GI50 [42] was 1.36 µM (inactive), the GI50 [43] was 0.0312 µM (active) and the GI50 [44] was 0.242 µM (active). For the same compound, the GI50 [45] was 0.367 µM (active) and the GI50 [46] was 1.41 µM (inactive).
In the case of `NC(=O)Cn1c(=O)[nH]c(=O)c2[nH]cnc21`, the GI50 [1] was > 100 µM (inactive), the GI50 [2] was > 100 µM (inactive) and the GI50 [3] was > 100 µM (inactive). For the same compound, the GI50 [4] was > 100 µM (inactive), the GI50 [5] was > 100 µM (inactive) and the GI50 [48] was > 100 µM (inactive). For the same compound, the GI50 [6] was > 100 µM (inactive), the GI50 [7] was > 100 µM (inactive) and the GI50 [49] was > 100 µM (inactive). For the same compound, the GI50 [8] was > 100 µM (inactive), the GI50 [9] was > 100 µM (inactive) and the GI50 [50] was > 100 µM (inactive). The GI50 [10] was > 100 µM (inactive), the GI50 [11] was > 100 µM (inactive) and the GI50 [12] was > 100 µM (inactive). For the same compound, the GI50 [13] was > 100 µM (inactive), the GI50 [14] was > 100 µM (inactive) and the GI50 [15] was > 100 µM (inactive). The GI50 [16] was > 100 µM (inactive), the GI50 [52] was > 100 µM (inactive) and the GI50 [17] was > 100 µM (inactive). For the same compound, the GI50 [18] was > 100 µM (inactive), the GI50 [19] was > 100 µM (inactive) and the GI50 [20] was > 100 µM (inactive). For the same compound, the GI50 [22] was > 100 µM (inactive), the GI50 [23] was > 100 µM (inactive) and the GI50 [24] was > 100 µM (inactive). For the same compound, the GI50 [26] was > 100 µM (inactive), the GI50 [27] was > 100 µM (inactive) and the GI50 [28] was > 100 µM (inactive). The GI50 [54] was > 100 µM (inactive), the GI50 [30] was > 100 µM (inactive) and the GI50 [31] was > 100 µM (inactive). The GI50 [55] was > 100 µM (inactive), the GI50 [32] was > 100 µM (inactive) and the GI50 [34] was > 100 µM (inactive). For the same compound, the GI50 [35] was > 100 µM (inactive), the GI50 [36] was > 100 µM (inactive) and the GI50 [37] was > 100 µM (inactive). The GI50 [56] was > 100 µM (inactive), the GI50 [38] was > 100 µM (inactive) and the GI50 [39] was > 100 µM (inactive). For the same compound, the GI50 [40] was over 100 µM, the GI50 [58] was > 100 µM (inactive) and the GI50 [41] was > 100 µM (inactive). The GI50 [42] was > 100 µM (inactive), the GI50 [43] was > 100 µM (inactive) and the GI50 [44] was > 100 µM (inactive). The GI50 [45] was > 100 µM (inactive) and the GI50 [46] was > 100 µM (inactive).
